Patent US20240352418A1, “METHOD FOR PRODUCING MULTINUCLEATED MEGAKARYOCYTE WITH ENHANCED PLATELET PRODUCTION CAPABILITY, METHOD FOR PRODUCING PLATELETS, METHOD FOR PRODUCING PLATELET PREPARATION, AND METHOD FOR PRODUCING BLOOD PREPARATION” (Megakaryon Corporation, priority 2021, published 2024)

Assays:
[1] = tested on: multinucleated megakaryocytes induced from immortalized megakaryocyte cell line (MKCL); assay: Size and expansion of multinucleated megakaryocytes after BSA fractionation (FSC, phase-contrast microscope); format: cell-based, human; details: F1 fraction, phase-contrast images, FIG. 4; AZ191 1 μmol/L and blebbistatin 10 μmol/L added together to GNF351 + Y-39983 (1B vs 1A); harmine 5 μmol/L added on top (Example 1 vs 1B)
Source text: Multinucleation was induced by culturing the immortalized megakaryocyte cell line obtained in Example 1(1) in the same manner as in Example 1(2). The obtained multinucleated megakaryocytes were fractionated according to the size of multinucleated megakaryocytes using bovine serum albumin. Specifically, a three-way stopcock was attached to a 50-ml injection syringe with a plunger removed, and the syringe was fixed with a clamp with a leading end of the tube facing downward. A 30% (w/v) albumin solution (derived from bovine serum, fatty acid free, Fujifilm Wako Pure Chemical Corporation #017-22231) was diluted with 1×HBSS (ThermoFisher #14175095) to prepare 2%, 4%, and 16% BSA solutions, and 16% (10 ml), 4% (4 ml), 2% (4 ml), and 0% (2 ml) solutions were layered in the above syringe in the stated order. A cell suspension containing 75×10^5 multinucleated megakaryocyte cells prepared using 2 ml of HBSS was then applied and allowed to stand for 50 minutes, so that the cells were settled under natural gravity. Then, the three-way stopcock was loosened, and the cells were collected by dropping droplets thereof. As a result, the cell population containing the multinucleated megakaryocytes was fractionated into fractions 1 to 4 (F1 to F4). Regarding the multinucleated megakaryocytes of each fraction, the number of sets of chromosomes (N) was analyzed in the same manner as in Example 1(3) above (Example 1). […]
After the fractionation, platelets were produced from multinucleated megakaryocytes by culturing the multinucleated megakaryocytes in the production culture medium excluding DOX. […] After the culturing, regarding the cell suspension containing platelets, the amount of platelets produced per megakaryocyte was calculated in the same manner as in Example 1(4).

[2] = tested on: immortalized megakaryocyte cell line (MKCL); assay: Degree of multinucleation (number of sets of chromosomes, PI staining, flow cytometer); format: cell-based, human; details: cultured 3 days with DOX; FIG. 1; harmine alone 10 μmol/L in growth medium (control 2); Example 1 = multinucleation culture medium; vs control 1 (growth medium)
Procedure: Next, multinucleation of immortalized megakaryocytes was induced by culturing, in a culture medium to which an AhR inhibitor, a ROCK inhibitor, a DYRK inhibitor, a myosin 2 inhibitor, and harmine were added in addition to DOX. Specifically, the immortalized megakaryocyte cell line obtained in Example 1(1) was suspended in a multinucleation culture medium below, to 3.0×10^5 cells/ml. Then, the cells were seeded on a 6-well dish at 2 mL/well, or on a 125-mL Erlenmeyer Flask at 25 mL/flask, and cultured while being shaken at 100 rpm for 3 days. The culture conditions were set to 37° C. and 5% CO2. […]
The cell suspension obtained after the culturing was collected, and the number of sets of chromosomes in the cell suspension and the size of the cells were measured using a flow cytometer. […] As for the obtained results, the number of sets of chromosomes (N) contained in megakaryocytes and the size of the cells was analyzed based on FSC and PI staining intensity (Example 1). […]
The nuclear phases of the multinucleated megakaryocytes obtained using the method for producing multinucleated megakaryocytes according to the present invention were examined. […] As for the obtained results, the number of sets of chromosomes (N) contained in megakaryocytes and the size of the cells was analyzed based on FSC and PI staining intensity. […]

SMILES	expansion of multinucleated megakaryocytes [1]	degree of multinucleation (nuclear phases detected) [2]
COc1cc(N2CCN(C)CC2)ccc1Nc1nccc(-c2cn(C)c3cnccc23)n1 [AZ191, N-[2-methoxy-4-(4-methyl-1-piperazinyl)phenyl]-4-(1-methyl-1H-pyrrolo [2,3-c]pyridin-3-yl)-2-pyrimidinamine]	facilitated expansion of multinucleated megakaryocytes	
Cc1ccc2c(c1)C(=O)C1(O)CCN(c3ccccc3)C1=N2 (stereo not shown) [blebbistatin, 3a-hydroxy-6-methyl-1-phenyl-2,3-dihydropyrrolo[2,3-b]quinolin-4-one]	facilitated expansion of multinucleated megakaryocytes	
COc1ccc2c(c1)[nH]c1c(C)nccc12 [harmine, 7-methoxy-1-methyl-9H-pyrido[3,4-b]indole]	no effect	32N multinucleated megakaryocytes were slightly detected
